# Assay results from publication PMC5766233, “Ternary copper(II) complex: NCI60 screening, toxicity studies, and evaluation of efficacy in xenograft models of nasopharyngeal carcinoma” (PLoS ONE, 2018).
# Legend:
# [1] = Acute in vivo toxicity, single dose; parameters: species or system NOD scid gamma female mice
# Description: Acute toxicity caused by the complex was tested on a method modified from the NCI single dose method. The experiment was performed to find the maximum tolerated dose (MTD) for the calculation of doses for repeat-dose animal testing; the experiment was designed to minimize both the use of compound tested and the number of animals to be sacrificed. […] Five doses, viz. 35.0, 17.5, 12.5, 7.5 and 5.5 mg/kg body weight of the Cu(II) complex, were injected intraperitoneally as single doses into each mouse respectively and the mice were observed daily for 14 days for drug-induced toxicity. The findings of the acute toxicity study are listed in S1 Table.
# Determination of acute toxicity was carried out using a method adapted from the NCI [43]. Five mice were randomly separated into five cages. Five doses, i.e. 35.0, 17.5, 12.5, 7.5 and 5.5 mg/kg of body weight of Cu(II) complex were injected intraperitoneally as a single dose into each mouse respectively. After the drug administration, mice were observed hourly for any signs of toxicity, mortality, changes in general behavior and physical activities for the first 4 hours, then 4 hourly for 1 day followed by daily observation for 2 weeks. The signs which were monitored and recorded during this study included hypoactivity, lethargy, hypoapnoea, abnormal gait and posture, tremors, arching and rolling, convulsions, salivation and diarrhea. Mouse death during the period of observation was considered as death due to toxic effects of the test compound. The lethal dose and maximum tolerated dose (MTD) were determined during this study. At the end of the experiment, the survivors were sacrificed for necropsy. Gross and histopathological examinations were performed on the major internal organs including the heart, lung, liver, kidney and spleen.
# [2] = test system: C666-1-GFP-Luc2 xenograft; experiment: In vivo efficacy in C666-1-GFP-Luc2 xenograft model; parameters: species or system NOD scid gamma female mice
# Description: Next, we assessed the anticancer efficacy of the Cu(II) complex on another NPC xenograft, the EBV positive C666-1-GFP-Luc2 cells. […] Two mice in this group completed the 14 doses but died on the last day of the experiment while one mouse died on day 13 after receiving 12 doses of the Cu(II) complex. […] Harvested major organs sections stained with hematoxylin and eosin dyes were also examined. […] Therefore, no toxicity was found in mice carrying nasopharyngeal C666-1-GFP-Luc2 when treated with Cu(II) complexes at the doses of 4 mg/kg and 5 mg/kg. The underlying cause of death, presumed to be due to toxicity at the dose of 6 mg/kg, could not be ascertained conclusively because although the liver size was smaller in the treated group, the histopathology of the liver appeared normal and no other abnormalities were detected other than lower spleen size.
# 2.0 x 10^6 HK1 or C666-1-GFP-Luc2 cells in 100 μl RPMI media mixed with matrigel (BD Matrigel Basement Membrane Matrix; BD Biosciences, Bedford, MA, USA) was inoculated subcutaneously into the right lower flank of the NSG mice. Tumor growth was monitored and measured every other day using a digital caliper (Mitutoyo America Corporation, Aurora, Illinois, USA) until they reached 100–250 mm^3. Then, the mice were randomly assigned into treatment groups. The mice bearing HK1 xenograft tumor were divided into 3 treatment groups and a control (normal saline) group. The first batch received normal saline (one injection daily for 5 days), 6 mg/kg (one injection daily for 5 days) and 8 mg/kg (one injection every other day for 3 doses) of Cu(II) complex while the second batch received normal saline (one injection daily for 4 days), 4 mg/kg (one injection daily for 4 days), 6 mg/kg (one injection daily for 4 days) and 8 mg/kg (one injection every other day for 2 doses) of Cu(II) complex via intraperitoneal route.
# Subsequently, for the efficacy assay using mice bearing C666-1-GFP-Luc2 cells, 3 sets of control group versus experimental group were tested in three independent experiments. Mice were randomly assigned into 4, 5 or 6 mg/kg Cu(II) complex and their control groups respectively. Injections were given once daily for 12 to 18 days. Body weight change, food intake, signs of toxicity/morbidity as well as mortality were observed and recorded daily for the duration of the entire experiment. Tumor volumes were determined using a caliper thrice weekly. Tumor volumes were calculated according to the following formula: Tumor volume (mm^3) = (length [mm] X width^2 [mm^2])/2. At the end point of the studies, mice were placed under anesthesia for blood collection via submandibular and cardiac puncture before they were sacrificed for histopathological investigations. Tumors were harvested, imaged, weighed and fixed in formalin.
# All H&E-stained tissue section slides were examined under Nikon Eclipse Ni microscope (Nikon Instruments Inc., New York, USA) and microscopic images were taken using 20x and 40x objectives. For H&E tumor section slides, the percentage of tumor necrosis was determined qualitatively using microscope by the histopathologist in order to estimate the percentage of necrotic area induced by the Cu(II) complex in the tumors. For determination of femoral bone marrow suppression, low power (10x magnification) objective was used to scan the slides while 100x magnification to assess the degree of cellularity and amount of fat present.
# Firstly, 4 ml of rhodamine stock solution was combined with 46 ml of acetate buffer solution in order to prepare a working rhodamine solution. Tissue sections were prepared, deparaffinized and hydrated in distilled water. Then, a loosely capped staining jar containing working rhodamine was warmed in the microwave oven (Panasonic Corporation, Osaka, Japan). The slide with tissue section was placed in warmed working rhodamine solution and reheated using microwave oven. […]
smiles,measurement,setting,value
"CC(C)(N)C(=O)[O-].O.O=[N+]([O-])[O-].[Cu+2].c1cnc2c(c1)ccc1cccnc12 [Cu(II) complex, [Cu(phen)(C-dmg)(H2O)]NO3]",Mortality,[1]; 5.5 mg/kg single ip dose,No
same,Observation of mice behavioral and physical changes (after injection),[1]; 5.5 mg/kg single ip dose,No clinical signs occurred. It showed normal behavior patterns when provoked.
same,Observation of mice behavioral and physical changes (later),[1]; 5.5 mg/kg single ip dose,Normal behavior and activities.
same,Mortality,[1]; 7.5 mg/kg single ip dose,No
same,Observation of mice behavioral and physical changes (after injection),[1]; 7.5 mg/kg single ip dose,No abnormal clinical signs occurred. It showed normal behavior patterns when provoked.
same,Observation of mice behavioral and physical changes (later),[1]; 7.5 mg/kg single ip dose,Normal behavior and activities.
same,Mortality,[1]; 12.5 mg/kg single ip dose,No
same,Observation of mice behavioral and physical changes (after injection),[1]; 12.5 mg/kg single ip dose,"After drug injection, mouse stayed at corner of its cage but resumed its normal behavior and physical activities after 45 min. Body movement happened. It showed normal behavior patterns when provoked."
same,Observation of mice behavioral and physical changes (later),[1]; 12.5 mg/kg single ip dose,Normal behavior and activities.
same,Mortality,[1]; 17.5 mg/kg single ip dose,No
same,Observation of mice behavioral and physical changes (after injection),[1]; 17.5 mg/kg single ip dose,"After drug injection, mouse stayed at corner of the cage but resumed its normal behavior and physical activities after 45 min. Body movement happened. It showed normal behavior patterns when provoked."
same,Observation of mice behavioral and physical changes (later),[1]; 17.5 mg/kg single ip dose,Normal behavior and activities.
same,"Histopathological examination, spleen",[1]; 35 mg/kg single ip dose,increased in multinucleated giant cells
same,Mortality,[1]; 35.0 mg/kg single ip dose,Yes
same,Observation of mice behavioral and physical changes (after injection),[1]; 35.0 mg/kg single ip dose,"Mouse was immobile and staying at one corner of the cage about 30 min after drug injection. After 0.5, 1, 2, 3 & 4 h, it was still immobile. Unresponsive to provocation."
same,Observation of mice behavioral and physical changes (later),[1]; 35.0 mg/kg single ip dose,It was found dead on Day 2; blood stained urine noted.
same,MTD,"[1]; single dose treatment, intraperitoneal, estimated",17.5 mg/kg
same,LD50,"[1]; single intraperitoneal dose, estimated",26.25 mg/kg
same,"Histopathological examination, all organs examined",[1]; single ip doses other than 35 mg/kg,no significant morphological changes
same,tumor growth,"[2]; 4 mg/kg ip daily, 18 days",not effective
same,survival throughout the experiment,[2]; 6 mg/kg ip daily,only one mouse out of four
same,Copper staining of liver sections,"[2]; 4, 5 and 6 mg/kg",negative for copper deposits
same,body weight,"[2]; 4, 5 and 6 mg/kg",little influence
same,weight of vital organs,"[2]; 4, 5 and 6 mg/kg, except for liver in the 6 mg/kg group",no significant differences
same,tolerability,[2]; 4 and 5 mg/kg dose regimens,well tolerated
same,tumor growth,[2]; 5 and 6 mg/kg ip daily,significant tumor growth inhibition
same,"Histopathological examination of heart, liver, kidney and lung",[2]; all the groups,did not show any obvious abnormal changes
same,necrotic area in the tumor xenografts,"[2]; treated groups vs control groups, concentration dependent",higher percentage of necrotic area
